Data taken from article PMC9668969 (Nature Communications, 2022).

Target: T1, W206F ELIC (Dickeya chrysanthemi, UniProt P0C7B7, W205F)
T1 construct: host or cells: OverExpress C43 (DE3) E. coli
Assay: Tryptophan fluorescence emission spectrum with and without agonist
Type: biochemical, Erwinia chrysanthemi
Conditions: W206F 30 mM Cys
Procedure: To measure the tryptophan (Trp) fluorescence emission of ELIC, WT or W206F ELIC was diluted to 3 ml (0.02 mg/ml) and an emission spectrum was collected in a quartz fluorescence cell using a Fluoromax Plus Spectrofluorometer (Horiba Scientific). […] Trp fluorescence measurements with rapid mixing of agonist was carried out using the SX20 stopped-flow spectrofluorometer, outfitted with a 295 nm LED excitation source. Purified ELIC was diluted to 0.1 mg/ml in Trp Stopped-flow Buffer A (10 mM Tris pH 7.5, 100 mM NaCl, 0.05% DDM). A single mixing experiment was performed by mixing ELIC with equal volumes of Buffer A + propylamine. Propylamine was prepared at varying concentrations at 2x the final concentration. The instrument dead time was ~1 ms, enabling capture of most of the time course of change in Trp fluorescence. The time course of decrease in Trp fluorescence after rapid mixing with propylamine was fit to a single exponential to obtain a time constant for the rate of decrease and a measure of the extent of decrease. All replicates were taken from distinct samples.

T1 sequence (P0C7B7 whole entry W205F): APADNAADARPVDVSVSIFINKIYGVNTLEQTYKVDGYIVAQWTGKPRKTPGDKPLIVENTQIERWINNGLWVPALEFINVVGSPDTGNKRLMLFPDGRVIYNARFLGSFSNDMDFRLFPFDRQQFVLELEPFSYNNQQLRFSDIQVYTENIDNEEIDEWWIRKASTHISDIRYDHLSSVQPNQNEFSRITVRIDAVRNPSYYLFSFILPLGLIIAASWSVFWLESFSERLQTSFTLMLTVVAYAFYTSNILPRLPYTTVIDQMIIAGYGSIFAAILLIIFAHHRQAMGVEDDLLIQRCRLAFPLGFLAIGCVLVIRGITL

SMILES: NCCS [cysteamine]
- Tryptophan fluorescence emission intensity (wavelength 320): 771490
- Tryptophan fluorescence emission intensity (wavelength 321): 795430
- Tryptophan fluorescence emission intensity (wavelength 322): 813680
- Tryptophan fluorescence emission intensity (wavelength 323): 843300
- Tryptophan fluorescence emission intensity (wavelength 324): 855410
- Tryptophan fluorescence emission intensity (wavelength 325): 890410
- Tryptophan fluorescence emission intensity (wavelength 327): 921570
- Tryptophan fluorescence emission intensity (wavelength 328): 945690
- Tryptophan fluorescence emission intensity (wavelength 329): 972730
- Tryptophan fluorescence emission intensity (wavelength 330): 989960
- Tryptophan fluorescence emission intensity (wavelength 331): 1002600
- Tryptophan fluorescence emission intensity (wavelength 332): 1020470
- Tryptophan fluorescence emission intensity (wavelength 333): 1032760
- Tryptophan fluorescence emission intensity (wavelength 334): 1043250
- Tryptophan fluorescence emission intensity (wavelength 335): 1051410
- Tryptophan fluorescence emission intensity (wavelength 336): 1059950
- Tryptophan fluorescence emission intensity (wavelength 337): 1062210
- Tryptophan fluorescence emission intensity (wavelength 338): 1071660
- Tryptophan fluorescence emission intensity (wavelength 339): 1076280
- Tryptophan fluorescence emission intensity (wavelength 340): 1083710
- Tryptophan fluorescence emission intensity (wavelength 341): 1085920
- Tryptophan fluorescence emission intensity (wavelength 342): 1080500
- Tryptophan fluorescence emission intensity (wavelength 343): 1081010
- Tryptophan fluorescence emission intensity (wavelength 344): 1074670
- Tryptophan fluorescence emission intensity (wavelength 345): 1071140
- Tryptophan fluorescence emission intensity (wavelength 346): 1066530
- Tryptophan fluorescence emission intensity (wavelength 347): 1060720
- Tryptophan fluorescence emission intensity (wavelength 348): 1058590
- Tryptophan fluorescence emission intensity (wavelength 349): 1045760
- Tryptophan fluorescence emission intensity (wavelength 350): 1042330
- Tryptophan fluorescence emission intensity (wavelength 351): 1034700
- Tryptophan fluorescence emission intensity (wavelength 352): 1019030
- Tryptophan fluorescence emission intensity (wavelength 353): 1010620
- Tryptophan fluorescence emission intensity (wavelength 354): 993340
- Tryptophan fluorescence emission intensity (wavelength 355): 980850
- Tryptophan fluorescence emission intensity (wavelength 356): 973320
- Tryptophan fluorescence emission intensity (wavelength 357): 961650
- Tryptophan fluorescence emission intensity (wavelength 358): 938960
- Tryptophan fluorescence emission intensity (wavelength 359): 924340
- Tryptophan fluorescence emission intensity (wavelength 360): 898600
- Tryptophan fluorescence emission intensity (wavelength 361): 886010
- Tryptophan fluorescence emission intensity (wavelength 362): 867380
- Tryptophan fluorescence emission intensity (wavelength 363): 844340
- Tryptophan fluorescence emission intensity (wavelength 364): 830030
- Tryptophan fluorescence emission intensity (wavelength 365): 813040
- Tryptophan fluorescence emission intensity (wavelength 366): 786750
- Tryptophan fluorescence emission intensity (wavelength 367): 769070
- Tryptophan fluorescence emission intensity (wavelength 368): 749540
- Tryptophan fluorescence emission intensity (wavelength 369): 729430
- Tryptophan fluorescence emission intensity (wavelength 370): 711180
- Tryptophan fluorescence emission intensity (wavelength 371): 692310
- Tryptophan fluorescence emission intensity (wavelength 372): 672500
- Tryptophan fluorescence emission intensity (wavelength 373): 652280
- Tryptophan fluorescence emission intensity (wavelength 374): 629710
- Tryptophan fluorescence emission intensity (wavelength 375): 618580
- Tryptophan fluorescence emission intensity (wavelength 376): 599350
- Tryptophan fluorescence emission intensity (wavelength 377): 580660
- Tryptophan fluorescence emission intensity (wavelength 378): 563670
- Tryptophan fluorescence emission intensity (wavelength 379): 543190
- Tryptophan fluorescence emission intensity (wavelength 380): 522740
- Tryptophan fluorescence emission intensity (wavelength 381): 502820
- Tryptophan fluorescence emission intensity (wavelength 382): 487000
- Tryptophan fluorescence emission intensity (wavelength 383): 475140
- Tryptophan fluorescence emission intensity (wavelength 384): 456600
- Tryptophan fluorescence emission intensity (wavelength 385): 440790
- Tryptophan fluorescence emission intensity (wavelength 386): 423940
- Tryptophan fluorescence emission intensity (wavelength 387): 405220
- Tryptophan fluorescence emission intensity (wavelength 388): 397190
- Tryptophan fluorescence emission intensity (wavelength 389): 381080
- Tryptophan fluorescence emission intensity (wavelength 390): 363380
- Tryptophan fluorescence emission intensity (wavelength 391): 352540
- Tryptophan fluorescence emission intensity (wavelength 392): 336000
- Tryptophan fluorescence emission intensity (wavelength 393): 325360
- Tryptophan fluorescence emission intensity (wavelength 394): 311620
- Tryptophan fluorescence emission intensity (wavelength 395): 300840
- Tryptophan fluorescence emission intensity (wavelength 396): 285190
- Tryptophan fluorescence emission intensity (wavelength 397): 272180
- Tryptophan fluorescence emission intensity (wavelength 398): 260830
- Tryptophan fluorescence emission intensity (wavelength 399): 250140
- Tryptophan fluorescence emission intensity (wavelength 400): 241040
- Tryptophan fluorescence emission intensity (wavelength 401): 226290
- Tryptophan fluorescence emission intensity (wavelength 402): 221660
- Tryptophan fluorescence emission intensity (wavelength 403): 211970
- Tryptophan fluorescence emission intensity (wavelength 404): 203540
- Tryptophan fluorescence emission intensity (wavelength 405): 194410
- Tryptophan fluorescence emission intensity (wavelength 406): 184680
- Tryptophan fluorescence emission intensity (wavelength 407): 177100
- Tryptophan fluorescence emission intensity (wavelength 408): 169410
- Tryptophan fluorescence emission intensity (wavelength 409): 164650
- Tryptophan fluorescence emission intensity (wavelength 410): 155310
- Tryptophan fluorescence emission intensity (wavelength 411): 149680
- Tryptophan fluorescence emission intensity (wavelength 412): 144200
- Tryptophan fluorescence emission intensity (wavelength 413): 137560
- Tryptophan fluorescence emission intensity (wavelength 414): 131490
- Tryptophan fluorescence emission intensity (wavelength 415): 127250
- Tryptophan fluorescence emission intensity (wavelength 416): 120610
- Tryptophan fluorescence emission intensity (wavelength 417): 116040
- Tryptophan fluorescence emission intensity (wavelength 418): 113630
- Tryptophan fluorescence emission intensity (wavelength 419): 109000
- Tryptophan fluorescence emission intensity (wavelength 420): 104760
